The record followed here is patent US9856278B2, “Lysophosphatidylserine derivative” (THE UNIVERSITY OF TOKYO, priority 2014, dated 2018).

For series [1], the target named is T1, mouse GPR174 (Mus musculus, UniProt Q3U507).
T1 construct: expressed in transfected cells; host or cells: HEK293 cells, transient transfection with pCAGGS vector (LipofectAMINE 2000)
The series can be described thus: TGFα cleavage assay, agonistic activity against GPR174. The settings on record: for GPR174/LPS3 agonistic activity: HEK293 cells transfected with AP labeled TGFα and mouse GPR174, graded against EC50 of Reference Compound 1; for EC50: HEK293 cells, mouse GPR174, AP-TGFα release, value in parentheses, read-out: GPR174/LPS3 EC50. The format is cell-based. The protocol: (§1) In a Dulbecco's modified Eagle's medium (DMEM) containing 10% bovine fetal calf serum (FCS), HEK293 cells were suspended to give a density of 2.0×10^5 cells/mL and seeded in 4 mL portions in 60 mm dishes. After 24-hr culture in the presence of 5% CO2, transfection with various expression vectors was performed using LipofectAMINE 2000 (Invitrogen). For each 60 mm dish, a plasmid vector for AP labeled TGFα was used in an amount of 1 μg and a pCAGGS plasmid vector for mouse GPR34, P2Y10 or GPR174 was also used in an amount of 1 μg. The plasmid vectors were provided by the methods disclosed in Patent Documents 2 and 5. It should be noted that the AP labeled TGFα is a protein having a human placental alkaline phosphatase fused to the N terminal of membrane-bound pro-TGFα, and a plasmid vector for the AP labeled TGFα can be prepared based on the disclosure of Tokumaru et al., J Cell Biol 151, 209-220 (2000). Twenty-four hours after transfection, cells were dissociated using trypsin/EDTA, resuspended in the culture broth to give a density of 2.0×10^4 cells/well, and seeded in a 96-well plate. In the case of stimulation with compounds, a Hank's balanced salt solution (HBSS, containing 5 mM HEPES) was used. After standing for 30 minutes, test compounds were added at varying concentrations, followed by standing for an additional one hour in the presence of 5% CO2. The 96-well plate was centrifuged (190×g, 3 min) and 80 μL of the supernatant was transferred to another 96-well plate. A reaction buffer (40 mM Tris-HCl (pH 9.5)) containing 10 mM p-nitrophenyl phosphate (p-NPP) was added in an amount of 80 μL to both the supernatant and the cells. After OD405 measurement with a microplate reader (background), heating was done at 37° C. for an hour and then another OD405 measurement was performed. For each well, the background was subtracted from the absorbance measured the second time and the result was fitted to the following formula to calculate AP activity.
(§2) Further, the values obtained by subtracting the AP activity (%) for the unstimulated group were plotted on the vertical axis to draw a graph. […] The EC50 values of the respective compounds are also cited in parentheses.

Series [2] has as its target T2, mouse GPR34 (Mus musculus, UniProt Q9R1K6).
T2 construct: expressed in transfected cells; host or cells: HEK293 cells, transient transfection with pCAGGS vector (LipofectAMINE 2000)
Nature of the series: TGFα cleavage assay, agonistic activity against GPR34. It is filed as cell-based. The settings on record: HEK293 cells transfected with AP labeled TGFα and mouse GPR34; graded against EC50 of Reference Compound 1. The protocol: as §1
Further, the values obtained by subtracting the AP activity (%) for the unstimulated group were plotted on the vertical axis to draw a graph.

In series [3] the target is T3, mouse P2Y10 (Mus musculus, UniProt Q8BFU7).
T3 construct: expressed in transfected cells; host or cells: HEK293 cells, transient transfection with pCAGGS vector (LipofectAMINE 2000)
Nature of the series: TGFα cleavage assay, agonistic activity against P2Y10. The settings on record: for P2Y10/LPS2 agonistic activity: HEK293 cells transfected with AP labeled TGFα and mouse P2Y10, graded against EC50 of Reference Compound 1; for EC50: HEK293 cells, mouse P2Y10, AP-TGFα release, value in parentheses, read-out: P2Y10/LPS2 EC50; for selectivity for P2Y10: against GPR34 and GPR174, from Table 3. It is filed as cell-based. The protocol:
as §1, §2

Counter-ions that a name gives are not always drawn.

By melting point is commonly meant the temperature of the solid-liquid transition.

T1 sequence (Q3U507 whole entry): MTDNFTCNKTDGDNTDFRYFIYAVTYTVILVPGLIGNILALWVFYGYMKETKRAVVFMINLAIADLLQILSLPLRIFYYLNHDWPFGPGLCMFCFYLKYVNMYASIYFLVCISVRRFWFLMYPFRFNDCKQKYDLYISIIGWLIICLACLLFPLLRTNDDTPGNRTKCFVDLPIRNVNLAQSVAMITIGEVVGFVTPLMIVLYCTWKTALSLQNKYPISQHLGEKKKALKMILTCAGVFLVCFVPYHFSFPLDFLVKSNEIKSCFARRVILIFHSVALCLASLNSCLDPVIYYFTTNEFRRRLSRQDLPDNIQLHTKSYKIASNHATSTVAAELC
T2 sequence (Q9R1K6 whole entry): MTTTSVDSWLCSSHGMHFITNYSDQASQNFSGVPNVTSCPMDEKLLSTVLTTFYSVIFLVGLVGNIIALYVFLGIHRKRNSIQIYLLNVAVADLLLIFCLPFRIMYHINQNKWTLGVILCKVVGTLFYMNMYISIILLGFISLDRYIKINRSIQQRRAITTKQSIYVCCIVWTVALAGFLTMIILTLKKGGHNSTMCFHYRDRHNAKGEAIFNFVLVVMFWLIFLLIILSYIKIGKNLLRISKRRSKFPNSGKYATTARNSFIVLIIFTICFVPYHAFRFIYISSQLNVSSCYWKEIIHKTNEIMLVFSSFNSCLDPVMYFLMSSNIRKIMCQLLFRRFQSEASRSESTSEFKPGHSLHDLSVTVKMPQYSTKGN
T3 sequence (Q8BFU7 whole entry): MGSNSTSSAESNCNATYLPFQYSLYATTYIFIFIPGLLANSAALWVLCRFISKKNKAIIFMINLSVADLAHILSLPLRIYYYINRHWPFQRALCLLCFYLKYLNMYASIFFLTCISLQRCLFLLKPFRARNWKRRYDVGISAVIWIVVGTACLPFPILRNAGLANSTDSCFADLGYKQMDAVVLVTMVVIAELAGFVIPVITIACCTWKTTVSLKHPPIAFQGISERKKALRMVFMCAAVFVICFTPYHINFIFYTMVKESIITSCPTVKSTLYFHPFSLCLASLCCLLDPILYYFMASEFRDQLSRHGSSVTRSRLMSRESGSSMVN

For the compound `CCCCCCCCCCCOc1ccccc1CCC(=O)OCc1ccc(OP(=O)(O)OC[C@H](N)C(=O)O)cc1` (as salt: TFA), the melting point fell in the range of 184 to 193 °C.

Turning to `N[C@@H](COP(=O)(O)Oc1cccc(COC(=O)CCc2ccccc2OCc2cccc(Oc3ccccc3)c2)c1)C(=O)O` (as salt: TFA) [Example 7, O-(hydroxy(3-(((3-(2-((3-phenoxybenzyl)oxy)phenyl)propanoyl)oxy)methyl)phenoxy)phosphoryl)-L-serine], the melting point was 175 to 185 °C.

As for `CCCCCCCCCCCOc1ccccc1CCC(=O)Oc1cccc(OP(=O)(O)OC[C@H](N)C(=O)O)c1` (as salt: salt) [Example 2, O-(hydroxy(3-((3-(2-(undecyloxy)phenyl)propanoyl)oxy)phenoxy)phosphoryl)-L-serine], the melting point lay in the range of 123 to 126.5 °C.

As to `CCCCCCCCCCCOc1ccccc1CCC(=O)Oc1ccc(OP(=O)(O)OC[C@H](N)C(=O)O)cc1` (as salt: salt) [Example 3, O-(hydroxy(4-((3-(2-(undecyloxy)phenyl)propanoyl)oxy)phenoxy)phosphoryl)-L-serine], the melting point is 140.5 to 142 °C.

Take `CCCCCCCCCCCOc1ccccc1CCC(=O)Oc1cccc(OP(=O)(O)OC[C@H](N)C(=O)O)c1` [Example 2, O-(hydroxy(3-((3-(2-(undecyloxy)phenyl)propanoyl)oxy)phenoxy)phosphoryl)-L-serine]: in series [1], the GPR174/LPS3 agonistic activity result is “−”. For the same compound, the GPR34/LPS1 agonistic activity entry in series [2] was “−”. Moreover, in series [3], the P2Y10/LPS2 agonistic activity result is recorded as “+++~++++”, the EC50 amounted to 14 nM and the “selectivity for P2Y10” value was “agonists having selectivity for P2Y10”.

Regarding `CCCCCCCCCCCOc1ccccc1CCC(=O)Oc1ccc(OP(=O)(O)OC[C@H](N)C(=O)O)cc1` [Example 3, O-(hydroxy(4-((3-(2-(undecyloxy)phenyl)propanoyl)oxy)phenoxy)phosphoryl)-L-serine], in series [1], the GPR174/LPS3 agonistic activity result is recorded as “+~++” and the EC50 was determined as 340 nM. For the same compound, the GPR34/LPS1 agonistic activity result in series [2] is reported as “−”. In series [3], the P2Y10/LPS2 agonistic activity entry is on record as “+++~++++”, the EC50 is 7 nM and the “selectivity for P2Y10” value is listed as “agonists having selectivity for P2Y10”.

Turning to `CCCCCCCCCCCOc1ccccc1CCC(=O)OCc1ccccc1OP(=O)(O)OC[C@H](N)C(=O)O` [Example 4, O-(hydroxy(2-(((3-(2-(undecyloxy)phenyl)propanoyl)oxy)methyl)phenoxy)phosphoryl)-L-serine], in series [1], the GPR174/LPS3 agonistic activity entry is reported as “+”. Moreover, the GPR34/LPS1 agonistic activity entry in series [2] is “+++”. Further, in series [3], the P2Y10/LPS2 agonistic activity result is “++”.

In the case of `CCCCCCCCCCCOc1ccccc1CCC(=O)OCc1cccc(OP(=O)(O)OC[C@H](N)C(=O)O)c1` [Example 6, O-(hydroxy(3-(((3-(2-(undecyloxy)phenyl)propanoyl)oxy)methyl)phenoxy)phosphoryl)-L-serine], the GPR174/LPS3 agonistic activity entry in series [1] is recorded as “+~++”. Also, the GPR34/LPS1 agonistic activity entry in series [2] is given as “−~++”. Further, in series [3], the P2Y10/LPS2 agonistic activity result is recorded as “++++”, the EC50 was determined as 3.3 nM and the “selectivity for P2Y10” value was “agonists having selectivity for P2Y10”.

Consider `N[C@@H](COP(=O)(O)Oc1cccc(COC(=O)CCc2ccccc2OCc2cccc(Oc3ccccc3)c2)c1)C(=O)O` [Example 7, O-(hydroxy(3-(((3-(2-((3-phenoxybenzyl)oxy)phenyl)propanoyl)oxy)methyl)phenoxy)phosphoryl)-L-serine], for which the GPR174/LPS3 agonistic activity result in series [1] is on record as “−~+”. Also, the GPR34/LPS1 agonistic activity entry in series [2] is on record as “−”. Further, in series [3], the P2Y10/LPS2 agonistic activity entry is recorded as “++~+++”, the EC50 was 31 nM and the “selectivity for P2Y10” value was “agonists having selectivity for P2Y10”.

Turning to `CCCCCCCCCCCOc1ccccc1CCC(=O)Oc1cccc(COP(=O)(O)OC[C@H](N)C(=O)O)c1` [Example 9, O-(hydroxy((3-((3-(2-(undecyloxy)phenyl)propanoyl)oxy)benzyl)oxy)phosphoryl)-L-serine], the GPR174/LPS3 agonistic activity entry in series [1] is “−”. For the same compound, in series [2], the GPR34/LPS1 agonistic activity result was “−”. In series [3], the P2Y10/LPS2 agonistic activity entry was “+++”, the EC50 is 30 nM and the “selectivity for P2Y10” value is “agonists having selectivity for P2Y10”.

Regarding `N[C@@H](COP(=O)(O)OCc1cccc(OC(=O)CCc2ccccc2OCc2cccc(Oc3ccccc3)c2)c1)C(=O)O` [Example 10, O-(hydroxy((3-((3-(2-((3-phenoxybenzyl)oxy)phenyl)propanoyl)oxy)benzyl)oxy)phosphoryl)-L-serine], in series [1], the GPR174/LPS3 agonistic activity result is “+~++”. In addition, the GPR34/LPS1 agonistic activity result in series [2] is recorded as “−~+”. In series [3], the P2Y10/LPS2 agonistic activity result is “++”.

With `CCCCCCCCCCCOc1ccccc1CCC(=O)OCC#CCOP(=O)(O)OC[C@H](N)C(=O)O` [Example 12, O-(hydroxy((4-((3-(2-(undecyloxy)phenyl)propanoyl)oxy)but-2-yn-1-yl)oxy)phosphoryl)-L-serine], the GPR174/LPS3 agonistic activity result in series [1] is reported as “+”. The GPR34/LPS1 agonistic activity entry in series [2] was “−”. In addition, in series [3], the P2Y10/LPS2 agonistic activity result is “++++~+++++”, the EC50 was found to be 1.5 nM and the “selectivity for P2Y10” value is recorded as “agonists having selectivity for P2Y10”.

In turn, `Cc1ccc(Oc2cccc(COc3ccccc3CCC(=O)O)c2)cc1` [Example 33, 3-(2-((3-(p-tolyloxy)benzyl)oxy)phenyl)propanoic acid] returned a melting point of 104.5 to 106 °C.

Turning to `Cc1cccc(C)c1-c1cccc(COc2ccccc2CCC(=O)O)c1` [Example 36, 3-(2-((2′,6′-dimethyl[1,1′-biphenyl]-3-yl)methoxy)phenyl)propanoic acid], the melting point was 117.5 to 120 °C.

`CC(C)(C)c1ccc(Oc2cccc(COc3ccccc3CCC(=O)O)c2)cc1` [Example 42, 3-(2-((3-(4-(tert-butyl)phenoxy)benzyl)oxy)phenyl)propanoic acid] came in with a melting point of 111.1 to 112.5 °C.

In turn, `O=C(O)CCc1ccccc1OCc1cccc(-c2ccccc2)c1` [Example 47, 3-(2-([1,1′-biphenyl]-3-ylmethoxy)phenyl)propanoic acid] returned a melting point of 87.8 to 88.8 °C.

The compound `O=C(O)CCc1cccc(OCc2cccc(-c3ccccc3)c2)c1` [Example 48, 3-(3-([1,1′-biphenyl]-3-ylmethoxy)phenyl)propanoic acid] displayed a melting point of 90 to 91 °C.

Consider `CCCCCCCC/C=C\CCCCCCCC(=O)OC[C@@H](O)COP(=O)(O)OC[C@H](N)C(=O)O` [compound 1, reference compound], for which, in series [1], the GPR174/LPS3 agonistic activity entry is “+++” and the EC50 is 81 nM. For the same compound, the GPR34/LPS1 agonistic activity entry in series [2] is given as “+++”. In series [3], the P2Y10/LPS2 agonistic activity entry is recorded as “+++” and the EC50 was 8.3 nM.
